In test [1] the test system is platelet thrombus (laser micro-injury of small blood vessel). Conditions: cited from earlier work; for inhibition of thrombosis (in words): general statement on potent inhibitors of platelet aggregation.
Test [2] has the same test system. The test can be described thus: biolaser model of experimental thrombosis (rabbit ear chamber). To be noted: combined with anagrelide at a lower than threshold level. The format is in vivo. From the text: These compounds were studied in vivo in an animal model for experimental thrombosis. The use of this model is described in detail in the reprint, Use of the Biolaser in the Evaluation of Anti-Thrombotic Agents, J. S. Fleming et al. "Platelets and Thrombosis", eds. S. Sherry and A. Scriabrine, University Park Press, 1974, Baltimore, which is incorporated herein by reference.
In brief, a micro-injury is created by a laser beam focused through a microscope onto the endothelium surface of a small blood vessel in a surgically implanted ear chamber of a rabbit. The injury induces the rapid formation of a platelet thrombis which can be measured. […] Prostacyclin is active in the biolaser model when infused intraveneously. The results of these tests preliminarily indicate that there is a super additive interaction between anagrelide and the compounds of this invention. […] To date, no other compounds have undergone significant in vivo analysis in the rabbit ear test.

Consider `CCCCC[C@H](O)/C=C/[C@@H]1[C@H]2C/C(=C/CCCC(=O)O)O[C@H]2C[C@H]1O` [prostacyclin], for which, in test [1], the “inhibition of thrombosis (in words)” value is recorded as “significant inhibition of this kind of thrombosis”. For the same molecule, the “activity in the biolaser model (in words)” value in test [1] (infused intravenously) is “active”. For the molecule `CCCCCC(O)C#CC1C2CCC(C2)C1C/C=C/CCCC(=O)OC` (stereo not shown) [Example 2], the “reduction in thrombosis, combination with anagrelide (in words)” value in test [2] is “substantial reduction in thrombosis”.

In the case of `O=C1CN2Cc3c(ccc(Cl)c3Cl)N=C2N1` [anagrelide], the “inhibition of thrombosis (in words)” value in test [1] was “significant inhibition of this kind of thrombosis”.

(Values after US4436934A, “Bicyclic prostaglandin analogs and method of synthesis” (Iowa State University Research Foundation, Inc., priority 1981, dated 1984).)
